{"source": "ChEMBL document CHEMBL1201862", "about": "“PubChem BioAssay data set” (2004)", "key": {"[1]": {"target": "FAD-linked sulfhydryl oxidase ALR (Homo sapiens, UniProt P55789)", "sequence (P55789 whole entry)": "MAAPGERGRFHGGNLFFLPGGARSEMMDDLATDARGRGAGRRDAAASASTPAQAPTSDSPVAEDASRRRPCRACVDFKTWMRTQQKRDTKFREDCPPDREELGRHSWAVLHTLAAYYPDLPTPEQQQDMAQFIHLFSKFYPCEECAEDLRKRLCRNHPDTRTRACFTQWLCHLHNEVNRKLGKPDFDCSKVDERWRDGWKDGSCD", "test": "inhibitors of human ALR sulfhydryl oxidase, dose response, biochemical, H2O2 detection, luminescence, cherry-pick (AID 493248)"}, "[2]": {"test": "inhibitors of intracellular T. cruzi replication, confirmation, NIH3T3 host cells, beta-gal luminescence (AID 2044);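 note: luminescent beta-galactosidase reporter signal from transgenic T. cruzi replicating inside host cells; inhibitors lower the luminescence signal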", "format": "functional, cell-based"}, "[3]": {"test": "cytotoxicity toward NIH3T3 fibroblasts, dose response, counter-screen, cell-based, ATP luminescence, mouse fibroblasts (AID 2010);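 note: cells exposed to compound for about 90 hours before reading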", "format": "functional"}, "[4]": {"target": "Heat shock protein HSP 90-alpha (Homo sapiens, UniProt P07900)", "format": "functional, organism-based"}, "P388/ADR": {"test_system": "P388/ADR", "test": "cells", "format": "functional", "conditions": "Mus musculus"}, "P388": {"test_system": "P388", "test": "cells", "format": "functional", "conditions": "Mus musculus"}, "[5]": {"target": "T1, DNA repair protein RAD52 homolog (Homo sapiens, UniProt P43351)", "T1 sequence (P43351 whole entry)": "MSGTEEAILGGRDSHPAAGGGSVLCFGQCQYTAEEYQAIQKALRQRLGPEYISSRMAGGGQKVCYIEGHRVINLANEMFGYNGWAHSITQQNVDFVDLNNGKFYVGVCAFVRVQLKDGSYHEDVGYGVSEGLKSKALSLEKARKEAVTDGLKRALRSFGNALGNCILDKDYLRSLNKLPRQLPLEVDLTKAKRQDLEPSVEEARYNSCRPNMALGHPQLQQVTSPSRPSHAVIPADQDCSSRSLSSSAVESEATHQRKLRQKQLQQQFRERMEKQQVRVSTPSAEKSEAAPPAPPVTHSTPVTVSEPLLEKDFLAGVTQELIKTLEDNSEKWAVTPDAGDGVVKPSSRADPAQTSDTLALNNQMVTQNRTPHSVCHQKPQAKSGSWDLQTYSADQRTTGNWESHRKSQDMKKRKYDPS", "format": "functional, biochemical"}, "[6]": {"test_system": "Streptococcus sp. 'group A'", "test": "growth inhibition of control SK(-) GAS strain, dose response, counter-screen for streptokinase expression inhibitor project, luminescence, kanamycin, BacTiterGlo, confirmation (AID 1900)", "format": "functional, organism-based"}, "Streptokinase A": {"target": "T2, Streptokinase A (Streptococcus pyogenes serotype M1, UniProt P10520)", "T2 sequence (P10520 whole entry)": "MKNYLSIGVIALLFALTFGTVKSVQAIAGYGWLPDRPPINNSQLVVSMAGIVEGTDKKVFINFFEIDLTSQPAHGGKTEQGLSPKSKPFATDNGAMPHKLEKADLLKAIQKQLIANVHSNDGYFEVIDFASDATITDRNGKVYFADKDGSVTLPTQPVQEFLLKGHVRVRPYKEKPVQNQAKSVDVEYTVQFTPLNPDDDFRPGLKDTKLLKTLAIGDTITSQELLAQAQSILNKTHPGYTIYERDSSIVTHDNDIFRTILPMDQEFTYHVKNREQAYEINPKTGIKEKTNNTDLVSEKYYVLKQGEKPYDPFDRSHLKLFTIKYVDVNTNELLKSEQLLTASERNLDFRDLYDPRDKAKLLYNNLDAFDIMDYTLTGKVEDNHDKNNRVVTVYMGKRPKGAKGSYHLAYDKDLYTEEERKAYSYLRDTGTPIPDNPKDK", "test": "S. pyogenes streptokinase expression inhibitors, potency, dose response, plasminogen activation absorbance, OD405 (AID 1914);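 note: secreted streptokinase activity via plasminogen activation per viability signal from cell pellet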", "format": "functional, Streptococcus pyogenes M1 GAS"}, "Streptococcus": {"test_system": "Streptococcus", "test": "Group A Streptococcus viability loss, dose response, counter-screen for streptokinase expression inhibitor project, luminescence, BacTiterGlo (AID 1915);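 note: potency for reduction of bacterial viability or growth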", "format": "functional, organism-based"}, "[7]": {"test": "Luminescence Cell-Based Dose Retest to Confirm Inhibitors of Cancer Stem Cells. [Related pubchem assays (depositor defined):AID2717, AID2721]", "format": "functional", "conditions": "Homo sapiens"}, "[8]": {"test": "intracellular Trypanosoma cruzi inhibitors in host cells – cell-based, plate reader, cherry-pick samples, set 3, dose response (AID 651818);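 note: compounds incubated with infected cells for about four days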", "format": "functional"}, "[9]": {"target": "T3, RNA-binding protein pos-1 (Caenorhabditis elegans, UniProt G5EF15)", "T3 sequence (G5EF15 whole entry)": "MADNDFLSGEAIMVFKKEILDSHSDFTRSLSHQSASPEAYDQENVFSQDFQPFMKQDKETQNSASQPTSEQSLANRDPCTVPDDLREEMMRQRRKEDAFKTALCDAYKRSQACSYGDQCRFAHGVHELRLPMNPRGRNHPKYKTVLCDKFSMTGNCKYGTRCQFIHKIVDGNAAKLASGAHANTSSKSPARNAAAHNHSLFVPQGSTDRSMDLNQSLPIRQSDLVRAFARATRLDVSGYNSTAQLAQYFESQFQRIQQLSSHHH", "test": "inhibitors of POS-1/mex-3 RNA binding, dose response, biochemical, fluorescence polarization (AID 1964);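 note: purified POS-1 fused to maltose binding protein made in E. coli; potency of compounds blocking POS-1 binding to fluorescent RNA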"}, "[10]": {"target": "T4, Zinc finger protein mex-5 (Caenorhabditis elegans, UniProt Q9XUB2)", "T4 sequence (Q9XUB2 whole entry)": "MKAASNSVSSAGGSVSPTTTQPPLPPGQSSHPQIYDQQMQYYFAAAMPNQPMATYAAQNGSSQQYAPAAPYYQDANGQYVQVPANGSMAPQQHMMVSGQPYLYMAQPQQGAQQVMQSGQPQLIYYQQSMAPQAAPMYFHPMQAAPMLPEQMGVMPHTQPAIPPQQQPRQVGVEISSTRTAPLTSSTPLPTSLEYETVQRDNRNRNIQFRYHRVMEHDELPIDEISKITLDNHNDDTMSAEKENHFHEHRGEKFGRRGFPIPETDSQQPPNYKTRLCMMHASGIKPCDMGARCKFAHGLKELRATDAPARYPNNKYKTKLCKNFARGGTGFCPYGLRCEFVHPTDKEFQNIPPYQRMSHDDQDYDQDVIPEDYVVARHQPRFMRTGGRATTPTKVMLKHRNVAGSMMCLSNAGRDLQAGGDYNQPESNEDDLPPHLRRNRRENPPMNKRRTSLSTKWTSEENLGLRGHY", "test": "MEX-5/TCR-2 RNA interaction inhibitors, dose response, biochemical, C. elegans, fluorescence polarization (AID 1960)"}}, "note": "Active and inactive are the calls of the source.", "data": [{"compound": "Cc1cc(C(=O)Nc2nnc(C3CCCCC3)s2)no1", "values": [{"measurement": "AC50", "setting": "[1]", "value": "5.82 µM (active)"}]}, {"compound": "CC(C)(C)C(O)C(Oc1ccc(Cl)cc1)n1cncn1", "note": "(stereo not given) [TRIADIMENOL]", "values": [{"measurement": "EC50", "setting": "[2]", "value": "1.51 µM (active)"}, {"measurement": "EC50", "setting": "[3]", "value": "> 60 µM (not active)"}, {"measurement": "AC50", "setting": "[4]", "value": "0.29 µM (active)"}]}, {"compound": "COC(=O)C12OCC34C(CC5C(C)=CC(=O)C(O)C5(C)C3C(O)C1O)OC(=O)C(OC(=O)CC(C)C)C24", "note": "(stereo not given)", "values": [{"measurement": "GI50", "setting": "P388/ADR", "value": "0.0216 µM (active)"}, {"measurement": "GI50", "setting": "P388", "value": "0.00154 µM (active)"}]}, {"compound": "O=C1c2cccc3cc4ccccc4c(c23)C(=O)N1CCNCCNCCNCCN1C(=O)c2cccc3cc4ccccc4c(c23)C1=O", "values": [{"measurement": "GI50", "setting": "P388/ADR", "value": "< 0.0187 µM (active)"}, {"measurement": "GI50", "setting": "P388", "value": "< 0.0146 µM (active)"}]}, {"compound": "CC1CCN(C(CC(=O)c2ccccc2)C(=O)c2ccccc2)CC1", "note": "(stereo not given)", "values": [{"measurement": "AC50", "setting": "[4]", "value": "7.7 µM (active)"}]}, {"compound": "O=C(c1ccc2c(c1)OCO2)N1CCN(c2ccccc2)CC1", "values": [{"measurement": "AC50", "setting": "[1]", "value": "13.9 µM (active)"}]}, {"compound": "CCCCCCOc1ccc(N2C(=O)CC(N3CCC(C(=O)OCC)CC3)C2=O)cc1", "note": "(stereo not given)", "values": [{"measurement": "AC50", "setting": "[4]", "value": "2.3 µM (active)"}]}, {"compound": "COc1cc2nc(O)c(C(=O)NCCCN3CCOCC3)c(O)c2cc1OC", "values": [{"measurement": "AC50", "setting": "[5]", "value": "15 µM (active)"}]}, {"compound": "COc1ccc(-n2nc(C)cc2Nc2ccccc2C(=O)O)cc1", "values": [{"measurement": "AC50", "setting": "[1]", "value": "3.72 µM (active)"}]}, {"compound": "Cc1ccc(N/N=C(\\C#N)C(=N)S)c(C)c1", "values": [{"measurement": "EC50", "setting": "[6]", "value": "32.6 µM (active)"}, {"measurement": "EC50", "setting": "Streptokinase A", "value": "> 150 µM (not active)"}, {"measurement": "EC50", "setting": "Streptococcus", "value": "20.8 µM (active)"}, {"measurement": "AC50", "setting": "[4]", "value": "1.84 µM (active)"}]}, {"compound": "CN(C)CCCNC(=O)c1ccc(-c2cc3nc(NCc4cccnc4)n(C)c(=O)c3s2)cc1", "values": [{"measurement": "AC50", "setting": "[5]", "value": "13.3 µM (active)"}]}, {"compound": "CC(C)c1ccc2c(c1)C(=O)NC(C)(C)C2", "values": [{"measurement": "AC50", "setting": "[1]", "value": "3.3 µM (active)"}]}, {"compound": "C[C@H](CO)N1C[C@H](C)[C@@H](CN(C)C(=O)Nc2ccc(C(F)(F)F)cc2)Oc2c(NC(=O)Nc3ccc(C(F)(F)F)cc3)cccc2C1=O", "values": [{"measurement": "AC50", "setting": "[7]", "value": "3.73 µM (active)"}, {"measurement": "AC50", "setting": "[8]", "value": "7.68 µM (active)"}]}, {"compound": "COc1ccc(CN(C)C[C@@H]2Oc3ccc(NC(=O)Cc4ccccc4)cc3CC(=O)N([C@@H](C)CO)C[C@@H]2C)cc1", "values": [{"measurement": "AC50", "setting": "[8]", "value": "4.08 µM (active)"}]}, {"compound": "Cc1nn(-c2ccccc2)c2sc(-c3nnc(S)o3)cc12", "values": [{"measurement": "EC50", "setting": "[6]", "value": "4.28 µM (active)"}, {"measurement": "EC50", "setting": "Streptokinase A", "value": "> 150 µM (not active)"}, {"measurement": "EC50", "setting": "Streptococcus", "value": "99 µM (active)"}, {"measurement": "AC50", "setting": "[1]", "value": "2.63 µM (active)"}]}, {"compound": "C[C@@H]1CN([C@H](C)CO)C(=O)Cc2cc(NS(=O)(=O)c3ccc(F)cc3)ccc2O[C@@H]1CN(C)S(=O)(=O)c1ccc(Cl)cc1", "values": [{"measurement": "AC50", "setting": "[8]", "value": "2.31 µM (active)"}]}, {"compound": "C[C@H]1CN([C@@H](C)CO)C(=O)c2cccc(NC(=O)Nc3ccc4c(c3)OCO4)c2O[C@@H]1CN(C)Cc1ccc(C(=O)Nc2ccccc2N)cc1", "values": [{"measurement": "AC50", "setting": "[8]", "value": "2.18 µM (active)"}]}, {"compound": "CCOc1ccc(C(C)=O)cc1Cn1ccsc1=N", "values": [{"measurement": "AC50", "setting": "[5]", "value": "4.87 µM (active)"}]}, {"compound": "COc1ccc(C2=CC3=C(Br)C(=O)C(C)(OC(=O)c4ccco4)C(=O)C3=CO2)cc1", "note": "(stereo not given)", "values": [{"measurement": "EC50", "setting": "[9]", "value": "> 300 µM (not active)"}, {"measurement": "EC50", "setting": "[10]", "value": "35.9 µM (active)"}, {"measurement": "AC50", "setting": "[4]", "value": "4.13 µM (active)"}]}, {"compound": "C[C@@H]1CN([C@H](C)CO)C(=O)Cc2cc(NC(=O)Nc3ccc(F)cc3)ccc2O[C@H]1CN(C)Cc1ccc(C(F)(F)F)cc1", "values": [{"measurement": "AC50", "setting": "[8]", "value": "7.02 µM (active)"}]}, {"compound": "CN(C)CCN1CCN(c2cc(-c3cccc(Cl)c3)nc3ccnn23)CC1", "values": [{"measurement": "AC50", "setting": "[5]", "value": "6.97 µM (active)"}]}, {"compound": "COc1ccc(C)cc1NC(=O)c1cc2c(CO)cnc(C)c2oc1=N", "values": [{"measurement": "AC50", "setting": "[1]", "value": "7.55 µM (active)"}]}]}
